Among the data in US10526327B2, “Histone demethylase inhibitors” (CELGENE QUANTICEL RESEARCH, INC., priority 2013, dated 2020) are IC50 values, retold here.

In general, pIC50 refers to the IC50 on a negative log10 scale, so that one unit is a factor of ten.

pIC50: −log10 of the molar value.

The target of the assay is T1, Jarid1B (Homo sapiens, UniProt Q9UGL1).
T1 construct: purchased BPS Bioscience or custom made by MolecularThroughput 50121
T1 sequence (Q9UGL1 2-751): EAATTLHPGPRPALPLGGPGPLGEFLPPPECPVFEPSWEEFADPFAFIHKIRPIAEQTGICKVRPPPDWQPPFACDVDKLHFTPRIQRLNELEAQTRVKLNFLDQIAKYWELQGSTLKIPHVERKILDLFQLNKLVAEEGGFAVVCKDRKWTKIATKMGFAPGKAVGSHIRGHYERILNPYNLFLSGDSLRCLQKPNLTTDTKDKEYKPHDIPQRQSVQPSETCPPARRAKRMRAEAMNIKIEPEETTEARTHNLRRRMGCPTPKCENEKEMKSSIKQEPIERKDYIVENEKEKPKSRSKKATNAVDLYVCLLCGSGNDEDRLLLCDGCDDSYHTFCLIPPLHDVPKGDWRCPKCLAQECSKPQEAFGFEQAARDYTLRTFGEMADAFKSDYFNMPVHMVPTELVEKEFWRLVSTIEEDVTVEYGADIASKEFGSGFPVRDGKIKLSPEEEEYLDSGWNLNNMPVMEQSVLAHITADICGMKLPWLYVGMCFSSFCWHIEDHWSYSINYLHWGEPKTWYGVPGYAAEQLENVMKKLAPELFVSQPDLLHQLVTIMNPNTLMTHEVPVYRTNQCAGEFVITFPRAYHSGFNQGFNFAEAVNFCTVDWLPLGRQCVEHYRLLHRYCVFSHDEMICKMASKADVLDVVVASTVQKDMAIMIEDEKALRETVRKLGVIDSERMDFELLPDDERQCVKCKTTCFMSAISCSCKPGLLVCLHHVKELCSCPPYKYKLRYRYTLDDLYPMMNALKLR
Description: Jarid1B in vitro enzyme inhibition assay (TR-FRET). It is filed as biochemical. An outline of the steps:
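Jarid1B (AA 2-751, baculovirus-expressed) at 0.8 nM with 300 nM biotin-H3K4me3 peptide and 2 μM α-ketoglutarate in HEPES pH 7.3 with ascorbate and Fe(II), 30 min at room temperature. Stopped with EDTA; H3K4me1-2 product detected by TR-FRET (665/615 ratio) and IC50 fitted from 11-point dilutions.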
Background: In TR-FRET formats the signal depends on donor and acceptor labels being close together.
As for `Oc1nc(OCc2ccc3ccccc3c2)nc2cnccc12` [Example 187, 2-(naphthalen-2-ylmethoxy)pyrido[3,4-d]pyrimidin-4-ol], the pIC50 was 5.00 to 6.00.

In turn, `Oc1nc(OCc2ccccc2-c2ccccc2)nc2cnccc12` [Example 185, 2-[(2-phenylphenyl)methoxy]pyrido[3,4-d]pyrimidin-4-ol] showed a pIC50 of 5.00 to 6.00.

The molecule `Oc1nc(OCc2cccc(F)c2F)nc2cnccc12` [Example 181, 2-[(2,3-difluorophenyl)methoxy]pyrido[3,4-d]pyrimidin-4-ol] had a pIC50 of 5.00 to 6.00.

`N#Cc1cccc(COc2nc(O)c3ccncc3n2)c1` [Example 32, 3-[(4-hydroxypyrido[3,4-d]pyrimidin-2-yl)oxymethyl]benzonitrile] showed a pIC50 of 6.00 to 7.00.

`Oc1nc(OCC2CCc3ccccc32)nc2cnccc12` (stereo not drawn) [Example 190, 2-(2,3-dihydro-1H-inden-1-ylmethoxy)pyrido[3,4-d]pyrimidin-4-ol] gave a pIC50 of 6.00 to 7.00.

As for `Oc1nc(OCC2CCOc3ccccc32)nc2cnccc12` (stereo not drawn) [Example 195, 2-(3,4-dihydro-2H-1-benzopyran-4-ylmethoxy)pyrido[3,4-d]pyrimidin-4-ol], the pIC50 was 6.00 to 7.00.

Turning to `Oc1nc(OC2CCCc3ccccc32)nc2cnccc12` (stereo not drawn) [Example 196, 2-(1,2,3,4-tetrahydronaphthalen-1-yloxy)pyrido[3,4-d]pyrimidin-4-ol], the negative-log IC50 (pIC50) was 5.00 to 6.00.

`CC(C)OCCOc1nc(O)c2ccncc2n1` [Example 29, 2-(2-propan-2-yloxyethoxy)pyrido[3,4-d]pyrimidin-4-ol]: the pIC50 is 6.00 to 7.00.

As to `Oc1nc(OCc2cccc(F)c2)nc2cnccc12` [Example 179, 2-[(3-fluorophenyl)methoxy]pyrido[3,4-d]pyrimidin-4-ol], the pIC50 was 5.00 to 6.00.

`O=C(NCCOc1nc(O)c2ccncc2n1)c1ccccc1` [Example 31, N-[2-(4-hydroxypyrido[3,4-d]pyrimidin-2-yl)oxyethyl]benzamide] showed a negative-log IC50 (pIC50) of at least 7.00.

`Oc1nc(OCC2CCCO2)nc2cnccc12` (stereo not drawn) [Example 26, 2-(oxolan-2-ylmethoxy)pyrido[3,4-d]pyrimidin-4-ol] gave a pIC50 of 5.00 to 6.00.

In turn, `Oc1nc(OCc2cc(F)ccc2F)nc2cnccc12` [Example 182, 2-[(2,5-difluorophenyl)methoxy]pyrido[3,4-d]pyrimidin-4-ol] gave a pIC50 of 5.00 to 6.00.

`Oc1nc(OCCOCc2ccccc2)nc2cnccc12` [Example 30, 2-(2-phenylmethoxyethoxy)pyrido[3,4-d]pyrimidin-4-ol]: the pIC50 is 6.00 to 7.00.

As to `Oc1nc(OCC2CCOC2)nc2cnccc12` (stereo not drawn) [Example 27, 2-(oxolan-3-ylmethoxy)pyrido[3,4-d]pyrimidin-4-ol], the pIC50 is 6.00 to 7.00.

Consider `CC(CO)COc1nc(O)c2ccncc2n1` (stereo not drawn) [Example 25, 2-(3-hydroxy-2-methylpropoxy)pyrido[3,4-d]pyrimidin-4-ol], for which the negative-log IC50 (pIC50) is 6.00 to 7.00.

Molecule `CC(C)Oc1nc(O)c2ccncc2n1` [Example 1, 2-propan-2-yloxy-3H-pyrido[3,4-d]pyrimidin-4-one] gave a pIC50 of 6.00 to 7.00.

Turning to `Oc1nc(OC2CCc3ccccc32)nc2cnccc12` (stereo not drawn) [Example 192, 2-(2,3-dihydro-1H-inden-1-yloxy)pyrido[3,4-d]pyrimidin-4-ol], the pIC50 is 5.00 to 6.00.

As to `Oc1nc(OCc2coc3ccccc23)nc2cnccc12` [Example 193, 2-(1-benzofuran-3-ylmethoxy)pyrido[3,4-d]pyrimidin-4-ol], the pIC50 was 6.00 to 7.00.

Take `Oc1nc(OCc2cccc(-c3ccccc3)c2)nc2cnccc12` [Example 186, 2-[(3-phenylphenyl)methoxy]pyrido[3,4-d]pyrimidin-4-ol]: the pIC50 was 5.00 to 6.00.

`Oc1nc(OC2CCOc3ccccc32)nc2cnccc12` (stereo not drawn) [Example 197, 2-(3,4-dihydro-2H-1-benzopyran-4-yloxy)pyrido[3,4-d]pyrimidin-4-ol] had a pIC50 of 6.00 to 7.00.

As to `Oc1nc(OCc2c(F)cccc2F)nc2cnccc12` [Example 183, 2-[(2,6-difluorophenyl)methoxy]pyrido[3,4-d]pyrimidin-4-ol], the pIC50 was 5.00 to 6.00.

As for `Oc1nc(OCCOCC(F)(F)F)nc2cnccc12` [Example 23, 2-[2-(2,2,2-trifluoroethoxy)ethoxy]pyrido[3,4-d]pyrimidin-4-ol], the pIC50 is 6.00 to 7.00.

With `Oc1nc(OCc2ccc(F)cc2)nc2cnccc12` [Example 180, 2-[(4-fluorophenyl)methoxy]pyrido[3,4-d]pyrimidin-4-ol], the pIC50 was 5.00 to 6.00.

`CC(C)(O)CCOc1nc(O)c2ccncc2n1` [Example 24, 2-(3-hydroxy-3-methylbutoxy)pyrido[3,4-d]pyrimidin-4-ol] had a pIC50 of at least 7.00.

In the case of `Oc1nc(OCC2COc3ccccc32)nc2cnccc12` (stereo not drawn) [Example 194, 2-(2,3-dihydro-1-benzofuran-3-ylmethoxy)pyrido[3,4-d]pyrimidin-4-ol], the pIC50 was 5.00 to 6.00.

`Cn1ccc(COc2nc(O)c3ccncc3n2)n1` [Example 33, 2-[(1-methylpyrazol-3-yl)methoxy]pyrido[3,4-d]pyrimidin-4-ol] gave a negative logarithm of the IC50 (pIC50) of 5.00 to 6.00.

`CC(=O)N(C)CCOc1nc(O)c2ccncc2n1` [Example 28, N-[2-(4-hydroxypyrido[3,4-d]pyrimidin-2-yl)oxyethyl]-N-methylacetamide] gave a pIC50 of 6.00 to 7.00.

Molecule `Oc1nc(OC2Cc3ccccc3C2)nc2cnccc12` [Example 189, 2-(2,3-dihydro-1H-inden-2-yloxy)pyrido[3,4-d]pyrimidin-4-ol] had a pIC50 of 6.00 to 7.00.

Molecule `Oc1nc(OCc2ccccc2C(F)(F)F)nc2cnccc12` [Example 177, 2-{[2-(trifluoromethyl)phenyl]methoxy}pyrido[3,4-d]pyrimidin-4-ol] showed a pIC50 of 5.00 to 6.00.

`Oc1nc(OCC2CCc3ccccc3C2)nc2cnccc12` (stereo not drawn) [Example 191, 2-(1,2,3,4-tetrahydronaphthalen-2-ylmethoxy)pyrido[3,4-d]pyrimidin-4-ol] gave a negative logarithm of the IC50 (pIC50) of 6.00 to 7.00.

With `Oc1nc(OCC2CCCc3ccccc32)nc2cnccc12` (stereo not drawn) [Example 188, 2-(1,2,3,4-tetrahydronaphthalen-1-ylmethoxy)pyrido[3,4-d]pyrimidin-4-ol], the pIC50 is 6.00 to 7.00.

`Oc1nc(OCc2ccccc2F)nc2cnccc12` [Example 178, 2-[(2-fluorophenyl)methoxy]pyrido[3,4-d]pyrimidin-4-ol] gave a negative-log IC50 (pIC50) of 5.00 to 6.00.

In the case of `Oc1nc(OCc2cccc3ccccc23)nc2cnccc12` [Example 184, 2-(naphthalen-1-ylmethoxy)pyrido[3,4-d]pyrimidin-4-ol], the pIC50 is 5.00 to 6.00.

For the molecule `Cn1cnc(-c2nccc3c(=O)[nH]cnc23)c1` [Example 198, 8-(1-methylimidazol-4-yl)-3H-pyrido[3,4-d]pyrimidin-4-one], the pIC50 was 6.00 to 7.00.

On to `CCOc1nc(O)c2ccncc2n1` [Example 2, 2-ethoxypyrido[3,4-d]pyrimidin-4-ol], for which the pIC50 is at least 7.00.

Regarding `Oc1nc(Oc2ccccc2)nc2cnccc12` [Example 34, 2-phenoxypyrido[3,4-d]pyrimidin-4-ol], the pIC50 is at least 7.00.
